Experimental data published in paper PMC6364417, “Kinase inhibitor library screening identifies synergistic drug combinations effective in sensitive and resistant melanoma cells” (Journal of Experimental & Clinical Cancer Research : CR, 2019).

Legend:
Test in all cases: Kinase inhibitor library screening, PrestoBlue cell viability, 1 or 10 μM, 72 h
[1] = tested on: 501Mel cells (parental); conditions: 501Mel Parental, in %
Experimental: (§1) After 72 h of treatment, cell viability was assessed using the PrestoBlue Cell Viability Reagent (ThermoFisher Scientific). Measurements were performed with the CLARIOstar Monochromator microplate reader (BMG Labtech).
(§2) Kinase inhibitor library screening. […] Each cell line was treated in its sensitive form (parental), and also as 2 resistant derivatives, which were made resistant to either Vemurafenib (XP) or Dabrafenib (GP). Drugs were added at 2 different concentrations, 1 and 10 μM, for 72 h and cell viability was assessed using the PrestoBlue Cell Viability assay. Results are depicted as % viability compared to untreated cells. Each cell line was analyzed at least in duplicate. […] (XLSX 95 kb)

[2] = tested on: 501Mel-GP cells (Dabrafenib-resistant); conditions: 501Mel GP, in %
Experimental: as §1, §2

[3] = tested on: 501Mel-XP cells (Vemurafenib-resistant); conditions: 501Mel XP, in %
Experimental: as §1, §2

[4] = tested on: A375 cells (parental); conditions: A375 Parental
Experimental: as §1, §2

[5] = tested on: A375-GP cells (Dabrafenib-resistant); conditions: A375 GP
Experimental: as §1, §2

[6] = tested on: A375-XP cells (Vemurafenib-resistant); conditions: A375 XP
Experimental: as §1, §2

[7] = tested on: IGR37 cells (parental); conditions: IGR37 Parental, in %
Experimental: as §1, §2

[8] = tested on: IGR37-GP cells (Dabrafenib-resistant); conditions: IGR37 GP
Experimental: as §1, §2

[9] = tested on: IGR37-XP cells (Vemurafenib-resistant); conditions: IGR37 XP
Experimental: as §1, §2

Compound: CC(O)C(=O)O.CC(O)C(=O)O.CN1CCN(c2ccc3nc(-c4c(N)c5c(F)cccc5[nH]c4=O)[nH]c3c2)CC1
- cell viability, 501Mel Parental, 1μΜ ([1]; 1μΜ, 72 h): 106.3
- cell viability, 501Mel Parental, 10μΜ ([1]; 10μΜ, 72 h): 0.756
- cell viability, 501Mel GP, 1μΜ ([2]; 1μΜ, 72 h): 100.0
- cell viability, 501Mel GP, 10μΜ ([2]; 10μΜ, 72 h): 0.0395
- cell viability, 501Mel XP, 1μΜ ([3]; 1μΜ, 72 h): 91.1
- cell viability, 501Mel XP, 10μΜ ([3]; 10μΜ, 72 h): -0.0481
- cell viability, A375 Parental, 1μΜ ([4]; 1μΜ, 72 h, in %): 106.9
- cell viability, A375 Parental, 10μΜ ([4]; 10μΜ, 72 h, in %): 48.0
- cell viability, A375 GP, 1μΜ ([5]; 1μΜ, 72 h, in %): 91.8
- cell viability, A375 GP, 10μΜ ([5]; 10μΜ, 72 h, in %): 46.4
- cell viability, A375 XP, 10μΜ ([6]; 10μΜ, 72 h, in %): 59.2
- cell viability, IGR37 Parental, 1μΜ ([7]; 1μΜ, 72 h): 105.9
- cell viability, IGR37 Parental, 10μΜ ([7]; 10μΜ, 72 h): 76.1
- cell viability, IGR37 GP, 10μΜ ([8]; 10μΜ, 72 h): 46.5%
- cell viability, IGR37 GP, 1μΜ ([8]; 1μΜ, 72 h, in %): 106.1
- cell viability, IGR37 XP, 10μΜ ([9]; 10μΜ, 72 h): 33%
- cell viability, IGR37 XP, 1μΜ ([9]; 1μΜ, 72 h, in %): 106.9

Compound: COc1cc(Nc2ncc(F)c(Nc3ccc4c(n3)N(COP(=O)([O-])[O-])C(=O)C(C)(C)O4)n2)cc(OC)c1OC.[Na+].[Na+]
- cell viability (kinase inhibitor library screening) ([1]; 10μΜ): 84.1
- cell viability (kinase inhibitor library screening) ([2]; 1μΜ): 98.3
- cell viability (kinase inhibitor library screening) ([2]; 10μΜ): 70.8
- cell viability (kinase inhibitor library screening) ([3]; 1μΜ): 98.8
- cell viability (kinase inhibitor library screening) ([3]; 10μΜ): 37.9
- cell viability (kinase inhibitor library screening) ([4]; 10μΜ, in %): 56.1
- cell viability (kinase inhibitor library screening) ([5]; 1μΜ, in %): 95.3
- cell viability (kinase inhibitor library screening) ([5]; 10μΜ, in %): 57.6
- cell viability (kinase inhibitor library screening) ([6]; 10μΜ, in %): 70.0
- cell viability (kinase inhibitor library screening) ([7]; 1μΜ): 103.8
- cell viability (kinase inhibitor library screening) ([7]; 10μΜ): 87.6
- cell viability (kinase inhibitor library screening) ([8]; 1μΜ, in %): 89.3
- cell viability (kinase inhibitor library screening) ([8]; 10μΜ, in %): 37.8
- cell viability (kinase inhibitor library screening) ([9]; 1μΜ, in %): 94.1
- cell viability (kinase inhibitor library screening) ([9]; 10μΜ, in %): 20.4

Compound: O=C1NC(=O)C(=Cc2ccc(-c3ccc(F)cc3)o2)S1 (stereo in doubt) [CAY10505]
- Cell viability in kinase inhibitor library screening, 501Mel Parental, 1μΜ ([1]; 1μΜ, 72 h): 99.8
- Cell viability in kinase inhibitor library screening, 501Mel Parental, 10μΜ ([1]; 10μΜ, 72 h): 97.3
- Cell viability in kinase inhibitor library screening, 501Mel GP, 1μΜ ([2]; 1μΜ, 72 h): 96.4
- Cell viability in kinase inhibitor library screening, 501Mel GP, 10μΜ ([2]; 10μΜ, 72 h): 89.6
- Cell viability in kinase inhibitor library screening, 501Mel XP, 1μΜ ([3]; 1μΜ, 72 h): 99.8
- Cell viability in kinase inhibitor library screening, 501Mel XP, 10μΜ ([3]; 10μΜ, 72 h): 90.3
- Cell viability in kinase inhibitor library screening, A375 Parental, 10μΜ ([4]; 10μΜ, 72 h): 93.9
- Cell viability in kinase inhibitor library screening, A375 Parental, 1μΜ ([4]; 1μΜ, 72 h): 105.4
- Cell viability in kinase inhibitor library screening, A375 GP, 1μΜ ([5]; 1μΜ, 72 h): 99.9
- Cell viability in kinase inhibitor library screening, A375 XP, 1μΜ ([6]; 72 h): 107.0
- Cell viability in kinase inhibitor library screening, A375 XP, 10μΜ ([6]; 10μΜ, 72 h): 110.5
- Cell viability in kinase inhibitor library screening, IGR37 Parental, 1μΜ ([7]; 1μΜ, 72 h): 103.7
- Cell viability in kinase inhibitor library screening, IGR37 Parental, 10μΜ ([7]; 10μΜ, 72 h): 103.3
- Cell viability in kinase inhibitor library screening, IGR37 GP, 10μΜ ([8]; 10μΜ, 72 h): 94.4%
- Cell viability in kinase inhibitor library screening, IGR37 GP, 1μΜ ([8]; 1μΜ, 72 h, in %): 98.2
- Cell viability in kinase inhibitor library screening, IGR37 XP, 10μΜ ([9]; 10μΜ, 72 h): 77.3%

Compound: Cn1cnc(N)c2ncnc1-2 [3-Methyladenine]
- Cell viability in kinase inhibitor library screening, 501Mel Parental, 1μΜ ([1]; 1μΜ, 72 h): 107.2
- Cell viability in kinase inhibitor library screening, 501Mel Parental, 10μΜ ([1]; 10μΜ, 72 h): 107.1
- Cell viability in kinase inhibitor library screening, 501Mel GP, 10μΜ ([2]; 10μΜ, 72 h): 93.3
- Cell viability in kinase inhibitor library screening, 501Mel XP, 10μΜ ([3]; 10μΜ, 72 h): 87.7
- Cell viability in kinase inhibitor library screening, A375 Parental, 10μΜ ([4]; 10μΜ, 72 h): 100.5
- Cell viability in kinase inhibitor library screening, A375 Parental, 1μΜ ([4]; 1μΜ, 72 h): 112.2
- Cell viability in kinase inhibitor library screening, A375 GP, 1μΜ ([5]; 1μΜ, 72 h): 104.5
- Cell viability in kinase inhibitor library screening, A375 XP, 1μΜ ([6]; 72 h): 106.2
- Cell viability in kinase inhibitor library screening, A375 XP, 10μΜ ([6]; 10μΜ, 72 h): 109.5
- Cell viability in kinase inhibitor library screening, IGR37 Parental, 1μΜ ([7]; 1μΜ, 72 h): 108.7
- Cell viability in kinase inhibitor library screening, IGR37 Parental, 10μΜ ([7]; 10μΜ, 72 h): 106.4
- Cell viability in kinase inhibitor library screening, IGR37 GP, 10μΜ ([8]; 10μΜ, 72 h): 97%
- Cell viability in kinase inhibitor library screening, IGR37 GP, 1μΜ ([8]; 1μΜ, 72 h, in %): 107.1
